Measured values reported in patent US20060264460A1 (Wyeth, priority 2005, published 2006).

Target: Tpl2 (Homo sapiens, UniProt P41279)
Test: not given
Details: background statement; cited from earlier work

Tpl2, sequence (P41279 whole entry): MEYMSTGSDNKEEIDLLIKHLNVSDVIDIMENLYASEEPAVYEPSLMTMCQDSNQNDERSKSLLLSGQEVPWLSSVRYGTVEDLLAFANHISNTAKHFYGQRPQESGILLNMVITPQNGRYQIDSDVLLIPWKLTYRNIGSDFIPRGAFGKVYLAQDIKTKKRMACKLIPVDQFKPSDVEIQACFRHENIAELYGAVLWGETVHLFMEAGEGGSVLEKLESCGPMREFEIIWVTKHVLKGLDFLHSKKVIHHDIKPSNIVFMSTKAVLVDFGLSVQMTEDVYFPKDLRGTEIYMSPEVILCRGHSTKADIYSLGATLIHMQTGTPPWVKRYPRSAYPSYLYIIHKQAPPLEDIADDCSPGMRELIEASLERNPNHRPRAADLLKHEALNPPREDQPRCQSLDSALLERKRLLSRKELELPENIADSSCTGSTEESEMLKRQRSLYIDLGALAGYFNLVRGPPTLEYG

Row | SMILES | inhibition of Tpl2
1 | CN[C@@H]1C[C@H]2O[C@@](C)([C@@H]1OC)n1c3ccccc3c3c4c(c5c6ccccc6n2c5c31)C(=O)NC4 [staurosporine] | not inhibited

Target: T1, human Cot/Tpl2 kinase (Homo sapiens, UniProt P41279)
T1 construct: human Cot/Tpl2 kinase construct encoding residues 30-398; 6His (N); made in house; host or cells: Sf9 insect cells, baculovirus system (BD Biosciences)
T1 sequence (P41279 30-398): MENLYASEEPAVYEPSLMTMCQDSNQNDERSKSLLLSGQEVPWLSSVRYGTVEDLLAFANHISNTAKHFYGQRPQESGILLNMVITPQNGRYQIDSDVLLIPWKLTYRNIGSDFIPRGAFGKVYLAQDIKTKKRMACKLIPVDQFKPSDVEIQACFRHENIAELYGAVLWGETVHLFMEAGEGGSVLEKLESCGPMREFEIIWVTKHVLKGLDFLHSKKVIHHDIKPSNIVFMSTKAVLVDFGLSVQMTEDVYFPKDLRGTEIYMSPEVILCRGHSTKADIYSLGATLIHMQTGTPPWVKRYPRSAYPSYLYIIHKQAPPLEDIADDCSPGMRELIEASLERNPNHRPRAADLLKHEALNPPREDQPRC
Test: Tpl2/Cot kinase assay: GST-MEK1 phosphorylation detected by ELISA (DELFIA Eu)
Type: biochemical
Details: Tpl2/Cot kinase, GST-MEK1 substrate, 50 uM ATP, 1 h at 30° C.; Table 2
Method in brief: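 His-tagged human Tpl2 from Sf9 cells, Ni-affinity and size-exclusion purified (monomer). 0.4 nM Tpl2 with 35 nM GST-MEK1, 50 uM ATP, MOPS pH 7.2, 1% DMSO, 1 h at 30° C; EDTA stop. MEK1 Ser217/221 phosphorylation detected by anti-phospho-MEK1 and Eu-labelled secondary ELISA; IC50 fitted.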

Row | SMILES | IC50 [nM]
2 | N#Cc1cnc2c(Cl)cc(NCc3cn(C4CCN(c5ncccc5C(F)(F)F)CC4)nn3)cc2c1Nc1ccc(F)c(Cl)c1 [Example 1008] | 490
3 | N#Cc1cnc2c(Cl)cc(NCc3cn(C4CCCN(CC(F)(F)F)CC4)nn3)cc2c1Nc1ccc(F)c(Cl)c1 (stereo not shown) [Example 1009] | 270
4 | N#Cc1cnc2c(Cl)cc(NCc3cn(C4CCCN(CC(F)F)CC4)nn3)cc2c1Nc1ccc(F)c(Cl)c1 (stereo not shown) [Example 1010] | 310
5 | N#Cc1cnc2c(Cl)cc(NCc3cn(C4CCCN(CCF)CC4)nn3)cc2c1Nc1ccc(F)c(Cl)c1 (stereo not shown) [Example 1011] | 9.1
6 | N#Cc1cnc2c(Cl)cc(NCc3cn(C4CCCN(CC(F)(F)C(F)(F)F)CC4)nn3)cc2c1Nc1ccc(F)c(Cl)c1 (stereo not shown) [Example 1012] | > 3000
7 | N#Cc1cnc2c(Cl)cc(NCc3cn(C4CCCN(CC(F)(F)C(F)F)CC4)nn3)cc2c1Nc1ccc(F)c(Cl)c1 (stereo not shown) [Example 1013] | 430
8 | N#Cc1cnc2c(Cl)cc(NCc3cn(C4CCN(CC(F)(F)F)CC4)nn3)cc2c1Nc1ccc(F)c(Cl)c1 [Example 1014] | 280
9 | N#Cc1cnc2c(Cl)cc(NCc3cn(C4CCN(CC(F)F)CC4)nn3)cc2c1Nc1ccc(F)c(Cl)c1 [Example 1015] | 92
10 | N#Cc1cnc2c(Cl)cc(NCc3cn(C4CCN(CCF)CC4)nn3)cc2c1Nc1ccc(F)c(Cl)c1 [Example 1016] | 15
11 | N#Cc1cnc2c(Cl)cc(NCc3cn(C4CCN(CC(F)(F)C(F)(F)F)CC4)nn3)cc2c1Nc1ccc(F)c(Cl)c1 [Example 1017] | 1040
12 | N#Cc1cnc2c(Cl)cc(NCc3cn(C4CCN(CC(F)(F)C(F)F)CC4)nn3)cc2c1Nc1ccc(F)c(Cl)c1 [Example 1018] | 400
13 | N#Cc1cnc2c(Cl)cc(NCc3cncc(C(O)(C(F)(F)F)C(F)(F)F)c3)cc2c1Nc1ccc(F)c(Cl)c1 [Example 1019] | > 3000
14 | N#Cc1cnc2c(Cl)cc(NCc3cn(CCc4cccnc4)nn3)cc2c1Nc1ccc(F)c(Cl)c1 [Example 1020] | 130
15 | N#CCn1cc(CNc2cc(Cl)c3ncc(C#N)c(Nc4ccc(F)c(Cl)c4)c3c2)nn1 [Example 1021] | 430
16 | CN(C)CCCc1csc(CNc2cc(Cl)c3ncc(C#N)c(Nc4ccc(F)c(Cl)c4)c3c2)c1 [Example 1022] | 980
17 | CN(C)CC#Cc1csc(CNc2cc(Cl)c3ncc(C#N)c(Nc4ccc(F)c(Cl)c4)c3c2)c1 [Example 1023] | 1160
18 | N#Cc1cnc2c(Cl)cc(NCc3cc(Br)co3)cc2c1Nc1ccc(F)c(Cl)c1 [Example 1024] | > 3000
19 | N#Cc1cnc2c(Cl)cc(NCc3cn(Cc4cncc(C(O)(C(F)(F)F)C(F)(F)F)c4)nn3)cc2c1Nc1ccc(F)c(Cl)c1 [Example 1025] | 910
20 | Cn1cc(CNc2cc(Cl)c3ncc(C#N)c(Nc4ccc(F)c(Cl)c4)c3c2)cn1 [Example 1026] | 290
21 | N#Cc1cnc2c(Cl)cc(NCc3cn(C4CCN(CC5CC5)CC4)nn3)cc2c1Nc1ccc(F)c(Cl)c1 [Example 1027] | 7.9
22 | N#Cc1cnc2c(Cl)cc(N(Cc3cn(C4CCN(CC5CC5)CC4)nn3)CC3CC3)cc2c1Nc1ccc(F)c(Cl)c1 [Example 1028] | 410
23 | N#Cc1cnc2c(Cl)cc(N(Cc3cn(C4CCN(C5CCC5)CC4)nn3)C3CCC3)cc2c1Nc1ccc(F)c(Cl)c1 [Example 1029] | 290
24 | N#Cc1cnc2c(Cl)cc(NCc3cn(C4CCCN(C5CCC5)CC4)nn3)cc2c1Nc1ccc(F)c(Cl)c1 (stereo not shown) [Example 1030] | 12
25 | CC(C)(C)OC(=O)N1CCC(O)(c2cncc(CNc3cc(Cl)c4ncc(C#N)c(Nc5ccc(F)c(Cl)c5)c4c3)c2)CC1 [Example 1031] | 160
26 | N#Cc1cnc2c(Cl)cc(NCc3cncc(C4(O)CCNCC4)c3)cc2c1Nc1ccc(F)c(Cl)c1 [Example 1032] | > 3000
27 | CC(C)N1CCC(O)(c2cncc(CNc3cc(Cl)c4ncc(C#N)c(Nc5ccc(F)c(Cl)c5)c4c3)c2)CC1 [Example 1033] | 500
28 | CCN1CCC(O)(c2cncc(CNc3cc(Cl)c4ncc(C#N)c(Nc5ccc(F)c(Cl)c5)c4c3)c2)CC1 [Example 1034] | 400

Row | SMILES | IC50 [nM]
29 | CCNC1CCC(n2cc(CNc3cc(Cl)c4ncc(C#N)c(Nc5ccc(F)c(Cl)c5)c4c3)nn2)CC1 (stereo not shown) [Example 1035] | 36
30 | CNC1CCC(n2cc(CNc3cc(Cl)c4ncc(C#N)c(Nc5ccc(F)c(Cl)c5)c4c3)nn2)CC1 (stereo not shown) [Example 1036] | 40
31 | CC(C)NC1CCC(n2cc(CNc3cc(Cl)c4ncc(C#N)c(Nc5ccc(F)c(Cl)c5)c4c3)nn2)CC1 (stereo not shown) [Example 1037] | 20
32 | N#Cc1cnc2c(Cl)cc(NCc3cn(C4CCC(NC5CCCC5)CC4)nn3)cc2c1Nc1ccc(F)c(Cl)c1 (stereo not shown) [Example 1038] | 17
33 | N#Cc1cnc2c(Cl)cc(NCc3cn(C4CCC(Nc5ccccn5)CC4)nn3)cc2c1Nc1ccc(F)c(Cl)c1 (stereo not shown) [Example 1039] | 100
34 | N#Cc1cnc2c(Cl)cc(NCc3cn(C4CCC(NC5CC5)CC4)nn3)cc2c1Nc1ccc(F)c(Cl)c1 (stereo not shown) [Example 1040] | 17
35 | N#Cc1cnc2c(Cl)cc(NCc3cn(C4CCC(O)CC4)nn3)cc2c1Nc1ccc(F)c(Cl)c1 (stereo not shown) [Example 1041] | 5.7
36 | N#Cc1cnc2c(Cl)cc(NCc3cn(CCc4cncc(C(O)(C(F)(F)F)C(F)(F)F)c4)nn3)cc2c1Nc1ccc(F)c(Cl)c1 [Example 1042] | 130
37 | CN1C(C)(C)CC(n2cc(CNc3cc(Cl)c4ncc(C#N)c(Nc5ccc(F)c(Cl)c5)c4c3)nn2)CC1(C)C [Example 1043] | 52
38 | CC(C)N1CCC(c2cc(CNc3cc(Br)c4ncc(C#N)c(Nc5ccc(F)c(Cl)c5)c4c3)[nH]n2)CC1 [Example 1044] | 860
39 | CCN1CCC(c2cc(CNc3cc(Br)c4ncc(C#N)c(Nc5ccc(F)c(Cl)c5)c4c3)[nH]n2)CC1 [Example 1045] | 610
40 | CC(C)(C)OC(=O)N1C2CCC1CC(n1cc(CNc3cc(Cl)c4ncc(C#N)c(Nc5ccc(F)c(Cl)c5)c4c3)nn1)C2 (stereo not shown) [Example 1046] | 300
41 | N#Cc1cnc2c(Cl)cc(NCc3cncc(Br)c3)cc2c1Nc1ccc(F)c(Cl)c1 [Example 1047] | 470
42 | N#Cc1cnc2c(Cl)cc(NCc3cncc(C4(O)CCOCC4)c3)cc2c1Nc1ccc(F)c(Cl)c1 [Example 1048] | 450
43 | CC(C)N1C2CCC1CC(n1cc(CNc3cc(Cl)c4ncc(C#N)c(Nc5ccc(F)c(Cl)c5)c4c3)nn1)C2 (stereo not shown) [Example 1049] | 420
44 | CS(=O)(=O)N1C2CCC1CC(n1cc(CNc3cc(Cl)c4ncc(C#N)c(Nc5ccc(F)c(Cl)c5)c4c3)nn1)C2 (stereo not shown) [Example 1050] | 46
45 | CC(C)(C)OC(=O)N1CC=C(c2cncc(CNc3cc(Cl)c4ncc(C#N)c(Nc5ccc(F)c(Cl)c5)c4c3)c2)CC1 [Example 1051] | > 3000
46 | CCNC(=O)N1C2CCC1CC(n1cc(CNc3cc(Cl)c4ncc(C#N)c(Nc5ccc(F)c(Cl)c5)c4c3)nn1)C2 (stereo not shown) [Example 1052] | 23
47 | CC(=O)N1C2CCC1CC(n1cc(CNc3cc(Cl)c4ncc(C#N)c(Nc5ccc(F)c(Cl)c5)c4c3)nn1)C2 (stereo not shown) [Example 1053] | 24
48 | CC(C)N1CC=C(c2cncc(CNc3cc(Cl)c4ncc(C#N)c(Nc5ccc(F)c(Cl)c5)c4c3)c2)CC1 [Example 1054] | 1300
49 | CCCN1C2CCC1CC(n1cc(CNc3cc(Cl)c4ncc(C#N)c(Nc5ccc(F)c(Cl)c5)c4c3)nn1)C2 (stereo not shown) [Example 1055] | 8
50 | N#Cc1cnc2c(Cl)cc(NCc3cncc(C4=CCNCC4)c3)cc2c1Nc1ccc(F)c(Cl)c1 [Example 1056] | 880
51 | N#Cc1cnc2c(Cl)cc(NCc3cn(C4CC5CCC(C4)N5CC4CC4)nn3)cc2c1Nc1ccc(F)c(Cl)c1 (stereo not shown) [Example 1057] | 11
52 | CC(C)CN1C2CCC1CC(n1cc(CNc3cc(Cl)c4ncc(C#N)c(Nc5ccc(F)c(Cl)c5)c4c3)nn1)C2 (stereo not shown) [Example 1058] | 70
53 | N#Cc1cnc2c(Cl)cc(NCc3cn(C4CC5CCC(C4)N5C=O)nn3)cc2c1Nc1ccc(F)c(Cl)c1 (stereo not shown) [Example 1059] | 14
54 | CC1(O)CCC(n2cc(CNc3cc(Cl)c4ncc(C#N)c(Nc5ccc(F)c(Cl)c5)c4c3)nn2)CC1 (stereo not shown) [Example 1060] | 45
55 | CC(C)N1CCC(c2cncc(CNc3cc(Cl)c4ncc(C#N)c(Nc5ccc(F)c(Cl)c5)c4c3)c2)CC1 [Example 1061] | 600
